Experimental data from US12662491B2 (Redona Therapeutics, Inc., priority 2020, dated 2026).

The compounds below were run against T1, Zcchc11 enzyme (Homo sapiens, UniProt Q5TAX3) (assay: TUTase assay (Zcchc11 assay, Lin28a-dependent polyuridylation of pre-let-7)). Settings: Lin28a-dependent Zcchc11 (Z11) TUTase assay; read-out: Potency Lin28a-dep Z11 IC50.
T1 construct: made in house; host or cells: HEK293 cells (Zcchc11); E. coli Rosetta II (LIN28A)
T1 sequence (Q5TAX3 212-1420): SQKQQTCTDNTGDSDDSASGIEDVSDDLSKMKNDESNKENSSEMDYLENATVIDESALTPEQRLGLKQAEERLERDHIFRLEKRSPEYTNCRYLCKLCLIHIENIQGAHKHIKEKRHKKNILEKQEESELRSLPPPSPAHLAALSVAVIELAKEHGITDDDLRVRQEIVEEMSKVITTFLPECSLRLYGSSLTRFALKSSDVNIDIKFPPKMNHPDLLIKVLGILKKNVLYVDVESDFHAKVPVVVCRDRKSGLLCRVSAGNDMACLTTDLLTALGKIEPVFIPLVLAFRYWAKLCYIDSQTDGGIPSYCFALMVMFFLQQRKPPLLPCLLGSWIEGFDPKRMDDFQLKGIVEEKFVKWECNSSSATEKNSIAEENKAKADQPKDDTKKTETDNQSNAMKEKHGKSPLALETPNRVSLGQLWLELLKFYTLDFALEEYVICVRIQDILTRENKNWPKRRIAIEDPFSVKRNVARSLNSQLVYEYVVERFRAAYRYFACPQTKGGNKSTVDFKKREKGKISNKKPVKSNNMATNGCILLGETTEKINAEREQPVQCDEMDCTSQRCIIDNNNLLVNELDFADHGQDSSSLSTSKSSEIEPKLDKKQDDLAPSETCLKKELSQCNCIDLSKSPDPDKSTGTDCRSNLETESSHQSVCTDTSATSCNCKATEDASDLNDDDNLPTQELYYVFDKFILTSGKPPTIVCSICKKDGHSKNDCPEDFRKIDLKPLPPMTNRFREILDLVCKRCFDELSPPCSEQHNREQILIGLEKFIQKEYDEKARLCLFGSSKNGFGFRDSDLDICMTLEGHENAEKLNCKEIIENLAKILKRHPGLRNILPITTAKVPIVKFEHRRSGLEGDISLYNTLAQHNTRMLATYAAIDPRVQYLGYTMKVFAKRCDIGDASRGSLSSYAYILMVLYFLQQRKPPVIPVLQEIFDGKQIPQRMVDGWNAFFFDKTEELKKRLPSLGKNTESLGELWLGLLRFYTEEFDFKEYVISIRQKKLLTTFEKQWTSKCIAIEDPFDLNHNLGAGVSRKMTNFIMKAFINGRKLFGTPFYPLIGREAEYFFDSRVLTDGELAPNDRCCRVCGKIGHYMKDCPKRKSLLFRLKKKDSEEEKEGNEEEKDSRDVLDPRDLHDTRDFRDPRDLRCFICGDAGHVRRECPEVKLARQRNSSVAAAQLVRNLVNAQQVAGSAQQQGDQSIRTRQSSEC
Format: biochemical
Method in brief: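 Human Zcchc11 residues 212-1420 (HEK293-expressed, MBP tag cleaved, C-terminal FLAG) at 0.2 nM, with 10 nM full-length human LIN28A and 2 nM 5′-fluorescein pre-let-7, preincubated with compound 30 min at room temperature. Reaction started with 5 uM UTP plus 4 nM 3′-rhodamine A20 quench probe; fluorescein loss read kinetically, IC50 from initial rates.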

IC50, ≤ 1000 nM:
N#Cc1cc2c(=O)c(C(=O)O)cn(C3CCn4ccnc4C3)c2cc1N1CCC[C@@H]1COc1ncccc1Cl (stereo partly drawn) [Example 540, 7-((R)-2-(((3-chloropyridin-2-yl)oxy)methyl)pyrrolidin-1-yl)-6-cyano-4-oxo-1-(5,6,7,8-tetrahydroimidazo [1,2-a]pyridin-7-yl)-1,4-dihydroquinoline-3-carboxylic acid]
O=C(O)c1cn(-c2ccncn2)c2cc(N3CCC[C@@H]3COc3ncccc3Cl)c(Cl)cc2c1=O [Example 541, (R)-6-chloro-7-(2-(((3-chloropyridin-2-yl)oxy)methyl)pyrrolidin-1-yl)-4-oxo-1-(pyrimidin-4-yl)-1,4-dihydroquinoline-3-carboxylic acid]
CN(C)C1CN(c2ccc(-n3cc(C(=O)O)c(=O)c4cc(C#N)c(N5CCC[C@@H]5COc5ncccc5Cl)cc43)cn2)C1 [Example 542, (R)-7-(2-(((3-chloropyridin-2-yl)oxy)methyl)pyrrolidin-1-yl)-6-cyano-1-(6-(3-(dimethylamino)azetidin-1-yl)pyridin-3-yl)-4-oxo-1,4-dihydroquinoline-3-carboxylic acid]
O=C(O)c1cn(-c2ccnc(N3CCC3)c2)c2nc(N3CCC[C@@H]3COc3ncccc3Cl)c(Cl)cc2c1=O [Example 543, (R)-1-(2-(azetidin-1-yl)pyridin-4-yl)-6-chloro-7-(2-(((3-chloropyridin-2-yl)oxy)methyl)pyrrolidin-1-yl)-4-oxo-1,4-dihydro-1,8-naphthyridine-3-carboxylic acid]
CN(C)C1CN(c2cc(-n3cc(C(=O)O)c(=O)c4cc(Cl)c(N5CCC[C@@H]5COc5ncccc5Cl)nc43)ccn2)C1 [Example 544, (R)-6-chloro-7-(2-(((3-chloropyridin-2-yl)oxy)methyl)pyrrolidin-1-yl)-1-(2-(3-(dimethylamino)azetidin-1-yl)pyridin-4-yl)-4-oxo-1,4-dihydro-1,8-naphthyridine-3-carboxylic acid]
Cc1cc2c(=O)c(C(=O)O)cn(-c3ccc(N4CC(N(C)C)C4)nc3)c2cc1N1CCC[C@@H]1COc1ncccc1C [Example 545, (R)-1-(6-(3-(dimethylamino)azetidin-1-yl)pyridin-3-yl)-6-methyl-7-(2-(((3-methylpyridin-2-yl)oxy)methyl)pyrrolidin-1-yl)-4-oxo-1,4-dihydroquinoline-3-carboxylic acid]
CCc1cc2c(=O)c(C(=O)O)cn(-c3ccc(N4CC(N(C)C)C4)nc3)c2cc1N1CCC[C@@H]1COc1ncccc1Cl [Example 546, (R)-7-(2-(((3-chloropyridin-2-yl)oxy)methyl)pyrrolidin-1-yl)-1-(6-(3-(dimethylamino)azetidin-1-yl)pyridin-3-yl)-6-ethyl-4-oxo-1,4-dihydroquinoline-3-carboxylic acid]
CN(C)C1CN(c2cc(-n3cc(C(=O)O)c(=O)c4cc(Cl)c(N5CCC[C@@H]5COc5ncccc5Cl)cc43)ccn2)C1 [Example 548, (R)-6-chloro-7-(2-(((3-chloropyridin-2-yl)oxy)methyl)pyrrolidin-1-yl)-1-(2-(3-(dimethylamino)azetidin-1-yl)pyridin-4-yl)-4-oxo-1,4-dihydroquinoline-3-carboxylic acid]
O=C(O)c1cn(-c2cnc3[nH]ncc3n2)c2cc(N3CCC[C@@H]3COc3ncccc3Cl)c(Cl)cc2c1=O [Example 549, (R)-6-chloro-7-(2-(((3-chloropyridin-2-yl)oxy)methyl)pyrrolidin-1-yl)-4-oxo-1-(1H-pyrazolo[3,4-b]pyrazin-5-yl)-1,4-dihydroquinoline-3-carboxylic acid]
CCc1cc2c(=O)c(C(=O)O)cn(-c3cnccn3)c2cc1N1CCC[C@@H]1COc1ncccc1Cl [Example 551, (R)-7-(2-(((3-chloropyridin-2-yl)oxy)methyl)pyrrolidin-1-yl)-6-ethyl-4-oxo-1-(pyrazin-2-yl)-1,4-dihydroquinoline-3-carboxylic acid]
O=C(O)c1cn(-c2ccnc(N3CCC3)c2)c2cc(N3CCC[C@@H]3COc3ccccn3)c(Cl)cc2c1=O [Example 553, (R)-1-(2-(azetidin-1-yl)pyridin-4-yl)-6-chloro-4-oxo-7-(2-((pyridin-2-yloxy)methyl)pyrrolidin-1-yl)-1,4-dihydroquinoline-3-carboxylic acid]
O=C(O)c1cn(-c2ccnc(N3CCC3)c2)c2cc(N3CCC[C@@H]3COc3ncccc3Cl)c(Cl)cc2c1=O [Example 554, (R)-1-(2-(azetidin-1-yl)pyridin-4-yl)-6-chloro-7-(2-(((3-chloropyridin-2-yl)oxy)methyl)pyrrolidin-1-yl)-4-oxo-1,4-dihydroquinoline-3-carboxylic acid]
Nc1ncc(-n2cc(C(=O)O)c(=O)c3cc(Cl)c(N4CCC[C@@H]4COc4ncccc4Cl)cc32)cn1 [Example 555, (R)-1-(2-aminopyrimidin-5-yl)-6-chloro-7-(2-(((3-chloropyridin-2-yl)oxy)methyl)pyrrolidin-1-yl)-4-oxo-1,4-dihydroquinoline-3-carboxylic acid]
O=C(O)c1cn(Cc2cccnc2)c2cc(N3CCC[C@@H]3COc3ncccc3Cl)c(Cl)cc2c1=O [Example 557, (R)-6-chloro-7-(2-(((3-chloropyridin-2-yl)oxy)methyl)pyrrolidin-1-yl)-4-oxo-1-(pyridin-3-ylmethyl)-1,4-dihydroquinoline-3-carboxylic acid]
COCCNc1ccc(-n2cc(C(=O)O)c(=O)c3cc(I)c(N4CCC[C@@H]4COc4ncccc4Cl)cc32)cn1 [Example 558, (R)-7-(2-(((3-chloropyridin-2-yl)oxy)methyl)pyrrolidin-1-yl)-6-iodo-1-(6-((2-methoxyethyl)amino)pyridin-3-yl)-4-oxo-1,4-dihydroquinoline-3-carboxylic acid]
CN(C)C1CN(c2ccc(-n3cc(C(=O)O)c(=O)c4cc(C5CC5)c(N5CCC[C@@H]5COc5ncccc5Cl)cc43)cn2)C1 [Example 559, (R)-7-(2-(((3-chloropyridin-2-yl)oxy)methyl)pyrrolidin-1-yl)-6-cyclopropyl-1-(6-(3-(dimethylamino)azetidin-1-yl)pyridin-3-yl)-4-oxo-1,4-dihydroquinoline-3-carboxylic acid]
O=C(O)c1cn(-c2ncc[nH]2)c2cc(N3CCC[C@@H]3COc3ncccc3Cl)c(Cl)cc2c1=O [Example 560, (R)-6-chloro-7-(2-(((3-chloropyridin-2-yl)oxy)methyl)pyrrolidin-1-yl)-1-(1H-imidazol-2-yl)-4-oxo-1,4-dihydroquinoline-3-carboxylic acid]
CN1CCn2nc(-n3cc(C(=O)O)c(=O)c4cc(C#N)c(N5CCC[C@@H]5COc5ncccc5Cl)cc43)cc2C1 [Example 561, (R)-7-(2-(((3-chloropyridin-2-yl)oxy)methyl)pyrrolidin-1-yl)-6-cyano-1-(5-methyl-4,5,6,7-tetrahydropyrazolo [1,5-a]pyrazin-2-yl)-4-oxo-1,4-dihydroquinoline-3-carboxylic acid]
CN(C)[C@H]1CCN(c2ccc(-n3cc(C(=O)O)c(=O)c4cc(C#N)c(N5CCC[C@@H]5COc5ncccc5Cl)cc43)cn2)C1 [Example 562, 7-((R)-2-(((3-chloropyridin-2-yl)oxy)methyl)pyrrolidin-1-yl)-6-cyano-1-(6-((S)-3-(dimethylamino)pyrrolidin-1-yl)pyridin-3-yl)-4-oxo-1,4-dihydroquinoline-3-carboxylic acid]

IC50, 1000 to 10000 nM:
O=C(O)c1cn(Cc2ccccc2)c2cc(N3CCC[C@@H]3COc3ncccc3Cl)c(Cl)cc2c1=O [Example 556, (R)-1-benzyl-6-chloro-7-(2-(((3-chloropyridin-2-yl)oxy)methyl)pyrrolidin-1-yl)-4-oxo-1,4-dihydroquinoline-3-carboxylic acid]
